The nature of series [1]: In vivo plasma half-life in mice. The settings on record: male, mouse, 29.76 mg/kg; CD-1 mice, IV dose of Example 1 (9.3 mL/Kg of 3.2 mg/mL solution); Compound 1 in plasma by LC-MS. How it is done:
The in vivo half-life of Compound 1 in mice was determined by measurement of its plasma concentrations at various time points following IV dosing. 18 male CD-1 mice aged 7-9 weeks were dosed IV with a 9.3 mL/Kg dose of a 3.2 mg/mL solution of Example 1 in 15% hydroxypropyl-β-cyclodextrin/4.4% glucose/1 mM potassium phosphate (pH=7.6). Plasma samples were obtained at 10, 20, 30, 60, 120 and 240 min post-dose, sampling from 3 animals at each time point. Concentrations of Compound 1 in plasma were determined by LC-MS quantification.

The next series in a line: Aqueous solubility. It counts as physicochemical. The settings on record: for pH of saturated solution: aqueous saturated solution. The text has this: Solubility as employed herein is used generically to refer to a distribution of a compound of formula (I) in a solvent (for example water, saline or an aqueous isotonic solution such as glucose) such that the formulation/composition resulting therefrom is substantially free of visible aggregates and for example is substantially transparent when viewed by the naked eye. Such a formulation would therefore include a whole range of formats which are suitable for infusion and/or injection such as solutions, suspensions, colloids and the like. […]

Series [2] deals with Staphylococcus aureus methicillin resistant ATCC 33591. As to the kind of experiment: Mouse bacteraemia model, second experiment, IV dosing. It is filed as in vivo. The settings on record: for number of deaths: after 7 days, groups of 6 mice. How it is done:
In a second experiment Groups of 6 male CD-1 (Crl.) derived mice weighing 24±2 g were used. Mice were inoculated intraperitoneally (IP) with an LD90-100 of Staphylococcus aureus methicillin resistant ATCC 33591 (1.35×10^8 CFU/mouse) in 0.5 mL of BHI broth containing 5% mucin. Example 1 was dissolved in 5% dextrose/1.5 mM potassium phosphate, pH 5.0 and doses of 1, 3, 5 and 10 mg/Kg were administered intravenously (IV) to test animals at 1 and 13 hour(s) after bacteria challenge. The dosing volume was 5 mL/Kg. Mortality was recorded once daily for 7 days.

Series [3] has as its system Methicillin Resistant Staphylococcus aureus (MRSA, ATCC 33591). As to the kind of experiment: Neutropaenic mouse thigh infection model, further experiment. It counts as in vivo. The settings on record: IV 2 and 14 h after infection, 2.5-50 mg/Kg, FIG. 3. The procedure:
In a further experiment, groups of 6 male ICR mice weighing 24±2 g were used. Test animals were immunosuppressed by 2 intraperitoneal injections of cyclophosphamide, the first at 150 mg/Kg 4 days before infection (day-4) and the second at 100 mg/Kg 1 day before infection (day-1). On day 0, individual animals were inoculated intramuscularly (IM) into the right thigh of test animals with 1.5×10^5 CFU/mouse of Methicillin Resistant Staphylococcus aureus (MRSA, ATCC 33591) suspended in 100 μL of sterile PBS, pH 7.4. Vehicle and test substances were administered intravenously (IV) at a dose volume of 8 mL/Kg, 2 and 14 hours after thigh infection. Example 1 was dissolved in 5% dextrose/1 mM potassium phosphate, pH 5.0 and administered at doses of 2.5, 5, 10, 15, 25 and 50 mg/Kg. At 26 hours after inoculation, muscle of the right thigh of each test mouse was harvested. From an additional group with no treatment, muscle of the right thigh was harvested at 2 hours after inoculation for the basal CFU determination. The removed muscle tissues were then homogenized in 3-4 mL of PBS, pH 7.4 with a ceramic mortar. Homogenates of 0.1 mL were used for serial 10-fold dilutions and plated on Mueller Hinton broth in 1.5% Bacto agar for CFU determination.

Series [4] has the same test system. As to the kind of experiment: Neutropaenic mouse thigh infection model. It is filed as in vivo. How it is done: In vivo efficacy of compounds of the present invention in the treatment of bacterial tissue infections was evaluated using a neutropaenic mouse thigh model.
Groups of 6 male ICR mice weighing 24±2 g were used. Test animals were immunosuppressed by 2 intraperitoneal injections of cyclophosphamide, the first at 150 mg/Kg 4 days before infection (day-4) and the second at 100 mg/Kg 1 day before infection (day-1). On day 0, individual animals were inoculated intramuscularly (IM) into the right thigh of test animals with 1.15×10^8 CFU/mouse of Methicillin Resistant Staphylococcus aureus (MRSA, ATCC 33591) suspended in 100 μL of sterile PBS, pH 7.4. Vehicle and test substances were administered intravenously (IV) at a dose volume of 6 mL/Kg, 2 and 14 hours after thigh infection. Example 1 and vancomycin were dissolved in 15% hydroxypropyl-β-cyclodextrin/4.4% glucose/1.5 mM potassium phosphate buffer, pH 7.0 and administered at doses of 5, 10, 20, 30 and 40 mg/Kg. At 26 hours after inoculation, muscle of the right thigh of each test mouse was harvested. From an additional group with no treatment, muscle of the right thigh was harvested at 2 hours after inoculation for the basal CFU determination. The removed muscle tissues were then homogenized in 3-4 mL of PBS, pH 7.4 with a ceramic mortar. Homogenates of 0.1 mL were used for serial 10-fold dilutions and plated on Mueller Hinton broth in 1.5% Bacto agar for CFU determination. […] Results (mean cfu/g) are graphically represented in FIG. 2.

In series [5] the test system is Staphylococcus aureus methicillin resistant ATCC 33591. As to the kind of experiment: Mouse bacteraemia model, SC dosing. It is filed as in vivo. The procedure:
Groups of 6 male CD-1 (Crl.) derived mice weighing 24±2 g were used. Mice were inoculated intraperitoneally (IP) with an LD90-100 of Staphylococcus aureus methicillin resistant ATCC 33591 (1.1×10^7 CFU/mouse) in 0.5 mL of BHI broth containing 5% mucin. Example 1 and vancomycin were dissolved in 15% HPbetaCD/4.4% glucose/0.5 mM KH2PO4, pH 5.0 and doses of 1, 3, 5, 10 and 20 mg/Kg were administered subcutaneously (SC) to test animals at 0, 2 and 24 hour(s) after bacteria challenge. The dosing volume was 5 mL/Kg. Mortality was recorded once daily for 7 days (FIG. 1). The ED50 for each compound was determined by nonlinear regression.

Where [6] appears, read: aqueous, * = calculations made from two determinations.

These results are taken from patent publication US20120309676A1, “Lantibiotic Salts” (priority 2010, published 2012).

Where a name gives a salt, the structure may show the parent alone. Some results are limits rather than exact numbers.

In turn, `CCC(C)[C@@H]1NC(=O)[C@@H]2NC(=O)[C@H](CC(C)C)NC(=O)[C@H](NC(=O)[C@H]3CSC[C@H](N)C(=O)N[C@@H](CO)C(=O)NCC(=O)N[C@@H](Cc4c[nH]c5ccccc45)C(=O)N[C@@H](C(C)C)C(=O)N3)[C@H](C)SC[C@H](NC(=O)[C@H](CCC(=O)O)NC1=O)C(=O)NCC(=O)N[C@@H]1C(=O)N[C@@H](CC(C)C)C(=O)N[C@@H](C(C)C)C(=O)N[C@@H](CS[C@H]2C)C(=O)N[C@@H](C)C(=O)N[C@H](C(=O)NCc2cc(Cl)cc(Cl)c2)CS[C@H]1C` (stereo partly drawn) [Compound 1, Deoxyactagardine B (3,5-dichlorobenzylamine) monocarboxamide] gave a half-life in series [1] of approximately 2 h.
As for `CC[C@H](C)[C@@H]1NC(=O)[C@@H]2NC(=O)[C@H](CC(C)C)NC(=O)[C@H](NC(=O)[C@@H]3CSC[C@@H](N)C(=O)N[C@@H](CO)C(=O)NCC(=O)N[C@@H](Cc4c[nH]c5ccccc45)C(=O)N[C@@H](C(C)C)C(=O)N3)[C@H](C)SC[C@H](NC(=O)[C@H](CCC(=O)O)NC1=O)C(=O)NCC(=O)N[C@H]1C(=O)N[C@@H](CC(C)C)C(=O)N[C@@H](C(C)C)C(=O)N[C@@H](CS[C@H]2C)C(=O)N[C@@H](C)C(=O)N[C@H](C(=O)NCc2cc(Cl)cc(Cl)c2)CS[C@H]1C` [N-ethyl-D-glucamine salt], the “pH of saturated solution” value in “Aqueous solubility” turned out to be 8.43. For the same molecule, the Solubility in the series “Aqueous solubility” (setting [6]) is 11.16* mg/mL; in “Aqueous solubility” (salts of compound 1, listed as N-ethyl glucamine salt of compound 1), “more than 10 mg/mL”.
Consider `CC[C@H](C)[C@@H]1NC(=O)[C@@H]2NC(=O)[C@H](CC(C)C)NC(=O)[C@H](NC(=O)[C@@H]3CSC[C@@H](N)C(=O)N[C@@H](CO)C(=O)NCC(=O)N[C@@H](Cc4c[nH]c5ccccc45)C(=O)N[C@@H](C(C)C)C(=O)N3)[C@H](C)SC[C@H](NC(=O)[C@H](CCC(=O)O)NC1=O)C(=O)NCC(=O)N[C@H]1C(=O)N[C@@H](CC(C)C)C(=O)N[C@@H](C(C)C)C(=O)N[C@@H](CS[C@H]2C)C(=O)N[C@@H](C)C(=O)N[C@H](C(=O)NCc2cc(Cl)cc(Cl)c2)CS[C@H]1C` [diethanolamine salt], for which the “pH of saturated solution” value in the series “Aqueous solubility” is listed as 8.78. The Solubility in “Aqueous solubility” (setting [6]) is listed as 6.94* mg/mL; in the series “Aqueous solubility” (salts of compound 1, listed as diethanolamine salt of compound 1), “more than 5 mg/mL”.
For the molecule `CC[C@H](C)[C@@H]1NC(=O)[C@@H]2NC(=O)[C@H](CC(C)C)NC(=O)[C@H](NC(=O)[C@@H]3CSC[C@@H](N)C(=O)N[C@@H](CO)C(=O)NCC(=O)N[C@@H](Cc4c[nH]c5ccccc45)C(=O)N[C@@H](C(C)C)C(=O)N3)[C@H](C)SC[C@H](NC(=O)[C@H](CCC(=O)O)NC1=O)C(=O)NCC(=O)N[C@H]1C(=O)N[C@@H](CC(C)C)C(=O)N[C@@H](C(C)C)C(=O)N[C@@H](CS[C@H]2C)C(=O)N[C@@H](C)C(=O)N[C@H](C(=O)NCc2cc(Cl)cc(Cl)c2)CS[C@H]1C` [ethanolamine salt], the “pH of saturated solution” value in the series “Aqueous solubility” was found to be 8.74. The Solubility in “Aqueous solubility” (setting [6]) is given as 10.5* mg/mL; in the series “Aqueous solubility” (salts of compound 1, listed as ethanolamine salt of compound 1), “more than 10 mg/mL”.
`CC[C@H](C)[C@@H]1NC(=O)[C@@H]2NC(=O)[C@H](CC(C)C)NC(=O)[C@H](NC(=O)[C@@H]3CSC[C@@H](N)C(=O)N[C@@H](CO)C(=O)NCC(=O)N[C@@H](Cc4c[nH]c5ccccc45)C(=O)N[C@@H](C(C)C)C(=O)N3)[C@H](C)SC[C@H](NC(=O)[C@H](CCC(=O)O)NC1=O)C(=O)NCC(=O)N[C@H]1C(=O)N[C@@H](CC(C)C)C(=O)N[C@@H](C(C)C)C(=O)N[C@@H](CS[C@H]2C)C(=O)N[C@@H](C)C(=O)N[C@H](C(=O)NCc2cc(Cl)cc(Cl)c2)CS[C@H]1C` [triethanolamine salt]: in the series “Aqueous solubility”, the “pH of saturated solution” value amounted to 8.43. Also, the Solubility in the series “Aqueous solubility” (setting [6]) was 1.04 mg/mL.
The like results for `CC[C@H](C)[C@@H]1NC(=O)[C@@H]2NC(=O)[C@H](CC(C)C)NC(=O)[C@H](NC(=O)[C@@H]3CSC[C@@H](N)C(=O)N[C@@H](CO)C(=O)NCC(=O)N[C@@H](Cc4c[nH]c5ccccc45)C(=O)N[C@@H](C(C)C)C(=O)N3)[C@H](C)SC[C@H](NC(=O)[C@H](CCC(=O)O)NC1=O)C(=O)NCC(=O)N[C@H]1C(=O)N[C@@H](CC(C)C)C(=O)N[C@@H](C(C)C)C(=O)N[C@@H](CS[C@H]2C)C(=O)N[C@@H](C)C(=O)N[C@H](C(=O)NCc2cc(Cl)cc(Cl)c2)CS[C@H]1C` [tromethamine salt] were, in that order, 8.53 and 2.38 mg/mL.
On to `CN[C@H](CC(C)C)C(=O)N[C@H]1C(=O)N[C@@H](CC(N)=O)C(=O)N[C@H]2C(=O)N[C@H]3C(=O)N[C@H](C(=O)N[C@H](C(=O)O)c4cc(O)cc(O)c4-c4cc3ccc4O)[C@H](O)c3ccc(c(Cl)c3)Oc3cc2cc(c3O[C@@H]2O[C@H](CO)[C@@H](O)[C@H](O)[C@H]2O[C@H]2C[C@](C)(N)[C@H](O)[C@H](C)O2)Oc2ccc(cc2Cl)[C@H]1O` [vancomycin, reference compound], for which the number of deaths in series [2] (1 mg/kg IV at 1 and 13 h after challenge) stood at 5; in series [2] (3 mg/kg IV at 1 and 13 h after challenge), 3; in series [2] (5 mg/kg IV at 1 and 13 h after challenge), 1; in series [2] (10 mg/kg IV at 1 and 13 h after challenge), 0. Moreover, the “survival of mice after 7 days” value in series [2] (1, 3, 5 and 10 mg/kg) is “dose-dependent incease in survival”. The “bacterial counts in the thigh tissue” value in series [3] was “dose dependent reduction”. Also, the antimicrobial effect entry in series [4] (IV at 5, 10, 20, 30 and 40 mg/Kg×2, 2 and 14 h after thigh infection, harvest at 26 h) is listed as “significant antimicrobial effect”. In series [4] (at 30 mg/kg and above, IV ×2, thigh muscle at 26 h), the “reductions of CFU/g” value was more than 100 fold. For the same molecule, the “antimicrobial effect against S. aureus (MRSA) in mice” value in series [5] (3, 5, 10 and 20 mg/Kg×3, SC) is listed as “significant antimicrobial effect”. Further, the ED50 in series [5] (Staphylococcus aureus, ATCC33591, CD-1 mice, SC at 0, 2 and 24 h after challenge, mortality over 7 days, nonlinear regression, read-out: estimated ED50) is 3 mg/kg.
